Data set [1] in a line: Stability in human plasma. The data set is classed as in vitro ADME. The conditions noted are these: 37° C. As to the method: (§1) Compounds and positive control samples were dissolved in 100% DMSO at 3 mM. To investigate the stability of the test compounds in plasma, samples were made by diluting test compounds into plasma from the stock solutions to obtain a test compound concentration of 3 μM (0.1% DMSO). Before addition of a test compound, 990 μl of plasma were preincubated at 37° C. for 5 min in eppendorf. After addition of a test compound, 70 μl for each time point were transferred to a 96-deepwell plate, previously warmed at 37° C. in a DUBNOFF water bath. Each compound was tested at five time points, in duplicate (10, 20, 30, 40 and 60 min). At each time point, an aliquot of 50 μl was taken and transferred to a new 96-deepwell plate, and the reaction was stopped with 200 μl of 100% acetonitrile containing 0.1% formic acid and the appropriate internal standard. Then samples were centrifuged at 1100×g for 30 min at +4° C. and supernatants were transferred to a new 96-deepwell plate. Samples were evaporated under N2 and reconstituted in H2O/ACN 0.1% Formic Acid (98:2). Analysis was performed without a calibration curve (Acquity UPLC-Waters; SciexAPI4000). Time 0 was obtained by adding acetonitrile before addition of the test compound.

Data set [2] in a line: Stability in mouse plasma. Type of data set: in vitro ADME. As to the method:
as §1

Data set [3] relates to PANK2 silenced human neuroblastoma IMR32 cells (PANK2−/−). The experiment in a line: Coenzyme A assay in PANK2 silenced cells (LC-MS quantification of free CoA). Type of data set: cell-based. The conditions noted are these: compound added twice (24 h + 24 h), relative to 0.1% DMSO controls. In a few lines: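 Free intracellular CoA was measured by positive-mode LC-MS/MS of 20% TFA extracts, taking 2 μl per 10^6 cells as intracellular volume. Cells were IMR32 with stable lentiviral PANK2 knockdown, dosed twice 24 h apart (48 h total, 0.1% DMSO). Output is fold increase over vehicle.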

Setting [4] is: Diastereoisomer A (upfield shift in 31P NMR), read-out: t1/2, Human Plasma, Diastereoisomer A (converted).
The mark [5] stands for this setting: Diastereoisomer A (upfield shift in 31P NMR), 3 μM, 37° C., mouse plasma, read-out: t1/2, Mouse Plasma, Diastereoisomer A.
Setting [6] is: human, plasma, Diastereoisomer A (upfield shift in 31P NMR), read-out: t1/2, Human Plasma, Diastereoisomer A (converted).
The mark [7] stands for this setting: human, plasma, Diastereoisomer B, read-out: t1/2, Human Plasma, Diastereoisomer B (converted).

The record followed here is patent publication US10364263B2, “Cyclic phosphates and cyclic phosphoramidates for the treatment of neurologic disorders” (Retrophin, Inc., priority 2015, dated 2019).

Turning to `COC(=O)CCNC(=O)[C@@H]1OP(=O)(NCCN2CCOCC2)OCC1(C)C` (stereo partly drawn) [compound 126, methyl 3-((4R)-5,5-dimethyl-2-((2-morpholinoethyl)amino)-2-oxido-1,3,2-dioxaphosphinane-4-carboxamido)propanoate], the half-life at 3 µM in data set [1] (setting [4]) was greater than 60 min; in data set [2] (setting [5]), less than 9.6 min. In data set [1] (Diastereoisomer B, 3 μM), the “t1/2, Human Plasma, Diastereoisomer B” value is greater than 60 min. For the same compound, the “t1/2, Mouse Plasma, Diastereoisomer B” value in data set [2] (Diastereoisomer B, 3 μM, 37° C., mouse plasma) is less than 9.6 min. Also, the “PANK2−/− CoA (Fold Increase): fold increase in Coenzyme A (CoA) levels relative to controls” value in data set [3] amounted to 1.33 Fold Increase.
In the case of `C[C@H](NP1(=O)OCC(C)(C)[C@H](C(=O)NCCC(=O)OCc2cnccn2)O1)C(=O)OCCc1ccccc1` (stereo partly drawn) [compound 39, phenethyl ((4R)-5,5-dimethyl-2-oxido-4-((3-oxo-3-(pyrazin-2-ylmethoxy)propyl)carbamoyl)-1,3,2-dioxaphosphinan-2-yl)-L-alaninate], the half-life at 3 µM was greater than 60 min in data set [1] (setting [6]); greater than 60 min in data set [1] (setting [7]); less than 9.6 min in data set [2] (mouse, plasma). In addition, the “t1/2, Mouse Plasma, Diastereoisomer B” value in data set [2] (mouse, plasma, 3 µM) was less than 9.6 min. In addition, the “PANK2−/− CoA (Fold Increase): fold increase in Coenzyme A (CoA) levels relative to controls” value in data set [3] was found to be 2.18 Fold Increase.
On to `COC(=O)CCNC(=O)[C@@H]1OP(=O)(N[C@@H](Cc2cccnc2)C(=O)OCc2ccccc2)OCC1(C)C` (stereo partly drawn) [compound 30, (2S)-benzyl 2-(((4R)-4-((3-methoxy-3-oxopropyl)carbamoyl)-5,5-dimethyl-2-oxido-1,3,2-dioxaphosphinan-2-yl)amino)-3-(pyridin-3-yl)propanoate], for which the half-life at 3 µM was 49.8 min in data set [1] (setting [6]); greater than 60 min in data set [1] (setting [7]); less than 9.6 min in data set [2] (mouse, plasma). Moreover, the “t1/2, Mouse Plasma, Diastereoisomer B” value in data set [2] (mouse, plasma, 3 µM) was less than 9.6 min. Besides, in data set [3], the “PANK2−/− CoA (Fold Increase): fold increase in Coenzyme A (CoA) levels relative to controls” value is on record as 0.93 Fold Increase.
Taken in the same sequence, the figures for `COC(=O)CCNC(=O)[C@@H]1OP(=O)(N[C@H](C)C(=O)OCCc2scnc2C)OCC1(C)C` (stereo partly drawn) [compound 32, methyl 3-((4R)-5,5-dimethyl-2-(((R)-1-(2-(4-methylthiazol-5-yl)ethoxy)-1-oxopropan-2-yl)amino)-2-oxido-1,3,2-dioxaphosphinane-4-carboxamido)propanoate] were greater than 60 min, greater than 60 min, less than 9.6 min, less than 9.6 min and 1.49 Fold Increase.
Take `Cc1cc(COC(=O)CCNC(=O)[C@@H]2OP(=O)(N[C@@H](C)C(=O)OCCc3ccccc3)OCC2(C)C)no1` (stereo partly drawn) [compound 40, (5-methylisoxazol-3-yl)methyl 3-((4R)-5,5-dimethyl-2-oxido-2-(((S)-1-oxo-1-phenethoxypropan-2-yl)amino)-1,3,2-dioxaphosphinane-4-carboxamido)propanoate]: the half-life at 3 µM in data set [1] (setting [6]) was greater than 60 min; in data set [1] (setting [7]) it was greater than 60 min; in data set [2] (mouse, plasma), less than 9.6 min. Besides, the “t1/2, Mouse Plasma, Diastereoisomer B” value in data set [2] (mouse, plasma, 3 µM) was less than 9.6 min. Also, the “PANK2−/− CoA (Fold Increase): fold increase in Coenzyme A (CoA) levels relative to controls” value in data set [3] turned out to be 2.77 Fold Increase.
Regarding `COC(=O)CCNC(=O)[C@@H]1OP(=O)(NCc2ccncc2)OCC1(C)C` (stereo partly drawn) [compound 125, methyl 3-((4R)-5,5-dimethyl-2-oxido-2-((pyridin-4-ylmethyl)amino)-1,3,2-dioxaphosphinane-4-carboxamido)propanoate], the values for the half-life at 3 µM in data set [1] (setting [4]) and in data set [2] (setting [5]) were greater than 60 min and less than 9.6 min, respectively. In addition, the “PANK2−/− CoA (Fold Increase): fold increase in Coenzyme A (CoA) levels relative to controls” value in data set [3] was 1.99 Fold Increase.
For `CCOCCCOC(=O)CCNC(=O)[C@@H]1O[P@@](=O)(OCOC(=O)C(C)(C)C)OCC1(C)C` (single isomer, unassigned) [Compound No. 96], the half-life at 3 µM in data set [1] (setting [6]) was 16.8 min; in data set [2] (mouse, plasma), less than 9.6 min. Further, the “PANK2−/− CoA (Fold Increase): fold increase in Coenzyme A (CoA) levels relative to controls” value in data set [3] turned out to be 29.43 Fold Increase.
For `CC(C)(C)OC(=O)CCNC(=O)[C@@H]1OP(=O)(OCOC(=O)C(C)(C)C)OCC1(C)C` (stereo partly drawn) [Compound No. 75, (((4R)-4-((3-(tert-butoxy)-3-oxopropyl)carbamoyl)-5,5-dimethyl-2-oxido-1,3,2-dioxaphosphinan-2-yl)oxy)methyl pivalate], the half-life at 3 µM in data set [1] (setting [6]) is greater than 60 min; in data set [1] (setting [7]), less than 9.6 min; in data set [2] (mouse, plasma) it was less than 9.6 min. The “t1/2, Mouse Plasma, Diastereoisomer B” value in data set [2] (mouse, plasma, 3 µM) is less than 9.6 min. Further, the “PANK2−/− CoA (Fold Increase): fold increase in Coenzyme A (CoA) levels relative to controls” value in data set [3] came out at 1.52 Fold Increase.
Turning to `Cc1cc(COC(=O)CCNC(=O)[C@@H]2OP(=O)(OCOC(=O)C(C)(C)C)OCC2(C)C)no1` (single isomer, unassigned) [Compound No. 74], the half-life at 3 µM in data set [1] (setting [6]) was 46.8 min; in data set [1] (setting [7]), less than 9.6 min; in data set [2] (mouse, plasma) it was less than 9.6 min. Besides, the “t1/2, Mouse Plasma, Diastereoisomer B” value in data set [2] (mouse, plasma, 3 µM) is less than 9.6 min. In addition, in data set [3], the “PANK2−/− CoA (Fold Increase): fold increase in Coenzyme A (CoA) levels relative to controls” value is recorded as 176 Fold Increase.
For `C[C@H](NP1(=O)OCC(C)(C)[C@H](C(=O)NCCC(=O)OC(C)(C)C)O1)C(=O)OCCc1ccccc1` (stereo partly drawn) [compound 33, tert-butyl 3-((4R)-5,5-dimethyl-2-oxido-2-(((S)-1-oxo-1-phenethoxypropan-2-yl)amino)-1,3,2-dioxaphosphinane-4-carboxamido)propanoate], the half-life at 3 µM in data set [1] (setting [6]) was greater than 60 min; in data set [1] (setting [7]), greater than 60 min; in data set [2] (mouse, plasma), less than 9.6 min. Also, the “t1/2, Mouse Plasma, Diastereoisomer B” value in data set [2] (mouse, plasma, 3 µM) is less than 9.6 min. For the same compound, in data set [3], the “PANK2−/− CoA (Fold Increase): fold increase in Coenzyme A (CoA) levels relative to controls” value is on record as 0.8 Fold Increase.
Take `CC(C)(C)C(=O)OCOP1(=O)OCC(C)(C)[C@H](C(=O)NCCC(=O)OCc2ncccn2)O1` (stereo partly drawn) [Compound No. 95, (((4R)-5,5-dimethyl-2-oxido-4-((3-oxo-3-(pyrimidin-2-ylmethoxy)propyl)carbamoyl)-1,3,2-dioxaphosphinan-2-yl)oxy)methyl pivalate]: the half-life at 3 µM in data set [1] (setting [6]) was greater than 60 min; in data set [1] (setting [7]) it was less than 9.6 min; in data set [2] (mouse, plasma) it was less than 9.6 min. Moreover, the “t1/2, Mouse Plasma, Diastereoisomer B” value in data set [2] (mouse, plasma, 3 µM) is less than 9.6 min. For the same compound, in data set [3], the “PANK2−/− CoA (Fold Increase): fold increase in Coenzyme A (CoA) levels relative to controls” value was 54.03 Fold Increase.
Regarding `CC(C)(C)C(=O)OCOP1(=O)OCC(C)(C)[C@H](C(=O)NCCC(=O)OC2CCOC2)O1` (stereo partly drawn) [Compound No. 94, (((4R)-5,5-dimethyl-2-oxido-4-((3-oxo-3-((tetrahydrofuran-3-yl)oxy)propyl)carbamoyl)-1,3,2-dioxaphosphinan-2-yl)oxy)methyl pivalate], the half-life at 3 µM in data set [1] (setting [6]) is 40.8 min; in data set [1] (setting [7]), less than 9.6 min; in data set [2] (mouse, plasma), less than 9.6 min. For the same compound, the “t1/2, Mouse Plasma, Diastereoisomer B” value in data set [2] (mouse, plasma, 3 µM) is less than 9.6 min. The “PANK2−/− CoA (Fold Increase): fold increase in Coenzyme A (CoA) levels relative to controls” value in data set [3] is 13.14 Fold Increase.
For `COC(=O)CCNC(=O)[C@@H]1OP(=O)(OCOC(=O)OC(C)(C)C)OCC1(C)C` (stereo partly drawn) [compound 88, methyl 3-((4R)-2-(((tert-butoxycarbonyl)oxy)methoxy)-5,5-dimethyl-2-oxido-1,3,2-dioxaphosphinane-4-carboxamido)propanoate], the half-life at 3 µM in data set [1] (setting [6]) is 42.6 min; in data set [1] (setting [7]), 21.6 min; in data set [2] (mouse, plasma) it was less than 9.6 min. Also, in data set [2] (mouse, plasma, 3 µM), the “t1/2, Mouse Plasma, Diastereoisomer B” value was less than 9.6 min. The “PANK2−/− CoA (Fold Increase): fold increase in Coenzyme A (CoA) levels relative to controls” value in data set [3] turned out to be 2.66 Fold Increase.
The corresponding values for `COC(=O)CCNC(=O)[C@@H]1OP(=O)(OCOC(=O)[C@H](CC(C)C)NC(C)=O)OCC1(C)C` (stereo partly drawn) [Compound No. 73, (((4R)-4-((3-methoxy-3-oxopropyl)carbamoyl)-5,5-dimethyl-2-oxido-1,3,2-dioxaphosphinan-2-yl)oxy)methyl acetyl-L-leucinate] are less than 13.8 min, less than 9.6 min, less than 9.6 min, less than 9.6 min and 6.92 Fold Increase.
Taken in the same sequence, the figures for `CC(C)(C)C(=O)OCO[P@@]1(=O)OCC(C)(C)[C@H](C(=O)NCCC(=O)OCc2cncs2)O1` (single isomer, unassigned) [Compound No. 79] were greater than 60 min, less than 9.6 min, less than 9.6 min, less than 9.6 min and 133.6 Fold Increase.
